Our source for the Drug metabolism values is ChEMBL document CHEMBL3525904, “Effect of structural variation on aldehyde oxidase-catalyzed oxidation of zoniporide” (Drug Metab Dispos, 2012).

What all share (type): ADME, subcellular
Data set [1] concerns the target T1, Aldehyde oxidase (Homo sapiens, UniProt Q06278).
T1 sequence (Q06278 whole entry): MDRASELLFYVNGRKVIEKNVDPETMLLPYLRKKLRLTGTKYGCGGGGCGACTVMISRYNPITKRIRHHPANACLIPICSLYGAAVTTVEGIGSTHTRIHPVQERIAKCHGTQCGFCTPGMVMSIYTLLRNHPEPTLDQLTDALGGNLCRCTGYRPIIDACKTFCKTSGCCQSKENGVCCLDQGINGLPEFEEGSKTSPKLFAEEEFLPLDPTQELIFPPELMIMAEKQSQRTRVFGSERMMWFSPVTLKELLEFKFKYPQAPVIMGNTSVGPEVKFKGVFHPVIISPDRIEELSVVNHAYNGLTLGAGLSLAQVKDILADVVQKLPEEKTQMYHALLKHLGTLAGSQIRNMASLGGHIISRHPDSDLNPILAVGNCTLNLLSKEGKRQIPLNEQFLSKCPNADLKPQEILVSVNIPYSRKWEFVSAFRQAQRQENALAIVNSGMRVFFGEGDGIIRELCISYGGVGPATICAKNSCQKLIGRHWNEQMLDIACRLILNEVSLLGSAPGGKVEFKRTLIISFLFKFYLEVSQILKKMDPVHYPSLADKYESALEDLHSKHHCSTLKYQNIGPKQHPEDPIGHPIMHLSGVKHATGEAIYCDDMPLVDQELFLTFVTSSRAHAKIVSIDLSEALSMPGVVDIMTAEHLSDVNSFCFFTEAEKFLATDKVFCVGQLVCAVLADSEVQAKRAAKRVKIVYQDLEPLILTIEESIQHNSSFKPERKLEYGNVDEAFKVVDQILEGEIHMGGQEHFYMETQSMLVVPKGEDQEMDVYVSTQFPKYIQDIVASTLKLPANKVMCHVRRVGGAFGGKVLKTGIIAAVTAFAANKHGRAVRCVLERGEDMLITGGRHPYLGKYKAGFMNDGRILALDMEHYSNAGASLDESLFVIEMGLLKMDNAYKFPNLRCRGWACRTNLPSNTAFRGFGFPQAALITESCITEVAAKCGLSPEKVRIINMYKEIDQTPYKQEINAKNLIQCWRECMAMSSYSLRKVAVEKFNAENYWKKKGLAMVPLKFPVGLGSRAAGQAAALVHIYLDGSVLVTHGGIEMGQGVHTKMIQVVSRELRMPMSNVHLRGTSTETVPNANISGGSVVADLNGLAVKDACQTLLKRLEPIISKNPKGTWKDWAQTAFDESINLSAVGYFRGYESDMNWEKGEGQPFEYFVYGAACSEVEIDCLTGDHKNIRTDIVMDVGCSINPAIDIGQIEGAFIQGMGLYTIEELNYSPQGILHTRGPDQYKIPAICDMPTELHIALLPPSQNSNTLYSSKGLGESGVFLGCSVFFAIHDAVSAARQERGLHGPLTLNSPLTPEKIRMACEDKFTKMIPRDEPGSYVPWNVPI
The data set is described as follows: Drug level in human liver S9 fraction assessed as aldehyde oxidase-mediated compound formation treated with 10 uM N-carbamimidoyl-5-cyclopropyl-1-(6-methylquinolin-5-yl)-1H-pyrazole-4-carboxamide by spectrometry.

Data set [2] deals with T1, Aldehyde oxidase. The data set is described as follows: Drug level in human liver S9 fraction assessed as aldehyde oxidase-mediated compound formation treated with 10 uM N-carbamimidoyl-5-cyclopropyl-1-(quinolin-4-yl)-1H-pyrazole-4-carboxamide by spectrometry.
The target in data set [3] is T1, Aldehyde oxidase. The data set is described as follows: Drug level in human liver S9 fraction assessed as aldehyde oxidase-mediated compound formation treated with 10 uM 1-(1H-benzo[d]imidazol-4-yl)-N-carbamimidoyl-5-cyclopropyl-1H-pyrazole-4-carboxamide by spectrometry.
The target in data set [4] is T1, Aldehyde oxidase. The data set is described as follows: Drug level in human liver S9 fraction assessed as aldehyde oxidase-mediated compound formation treated with 10 uM N-carbamimidoyl-5-cyclopropyl-1-(6-hydroxyquinolin-5-yl)-1H-pyrazole-4-carboxamide by spectrometry.
Data set [5] deals with T1, Aldehyde oxidase. The data set is described as follows: Drug level in human liver S9 fraction assessed as aldehyde oxidase-mediated compound formation treated with 10 uM N-carbamimidoyl-5-cyclopropyl-1-(quinolin-6-yl)-1H-pyrazole-4-carboxamide by spectrometry.
Data set [6] deals with T1, Aldehyde oxidase. The data set is described as follows: Drug level in human liver S9 fraction assessed as aldehyde oxidase-mediated compound formation treated with 10 uM N-carbamimidoyl-5-cyclopropyl-1-(6-methoxyquinolin-5-yl)-1H-pyrazole-4-carboxamide by spectrometry.

Regarding `Cc1ccc2[nH]c(=O)ccc2c1-n1ncc(C(=O)NC(=N)N)c1C1CC1`, the Drug metabolism result on Aldehyde oxidase [1] is “metabolite_detected”. Consider `N=C(N)NC(=O)c1cnn(-c2cc(=O)[nH]c3ccccc23)c1C1CC1`, for which, on Aldehyde oxidase [2], the Drug metabolism result is reported as “metabolite_detected”. For `N=C(N)NC(=O)c1cnn(-c2cccc3[nH]c(=O)[nH]c23)c1C1CC1`, the Drug metabolism entry on Aldehyde oxidase [3] is given as “metabolite_detected”. `N=C(N)NC(=O)c1cnn(-c2c(O)ccc3[nH]c(=O)ccc23)c1C1CC1`: the Drug metabolism entry at Aldehyde oxidase [4] is “metabolite_detected”.

As for `N=C(N)NC(=O)c1cnn(-c2ccc3[nH]c(=O)ccc3c2)c1C1CC1`, the Drug metabolism entry at Aldehyde oxidase [5] was “metabolite_detected”. For the compound `COc1ccc2[nH]c(=O)ccc2c1-n1ncc(C(=O)NC(=N)N)c1C1CC1`, the Drug metabolism result on Aldehyde oxidase [6] is “metabolite_detected”.
